# Legend:
# Assay type in all cases: in vivo
# [1] = tested on: Tetranychus urticae; assay: Tetranychus urticae test (OP-resistent, dip application); settings: bush beans dipped
# From the text: (§1) The expected activity for a given combination of two active compounds can be calculated according to S. R. Colby, Weeds 15 (1967), 20-22) as follows:
# (§2) If • X is the kill rate, expressed in % of the untreated control, when employing active compound A at an application rate of m g/ha or in a concentration of m ppm, • Y is the kill rate, expressed in % of the untreated control, when employing active compound B at an application rate of n g/ha or in a concentration of n ppm and • E is the kill rate, expressed in % of the untreated control, when employing active compounds A and B at application rates of m and n g/ha or in a concentration of m and n ppm, then
# (§3) If the actual insecticidal kill rate is higher than the calculated one, the kill rates of the combination are superadditive, i.e. a synergistic effect is present. In this case, the kill rate that is actually observed has to be higher than the value, calculated using the formula above, for the expected kill rate (E).
# To produce a suitable preparation of active compound, 1 part by weight of active compound is mixed with the stated amounts of solvent and emulsifier, and the concentrate is diluted with water to the desired concentrations. […]
# After the desired period of time, the kill in % is determined. […]
# [2] = tested on: Aphis gossypii; assay: Aphis gossypii test (cotton leaves, dip); settings: cotton leaves dipped
# From the text: as §1, §2, §3
# (§4) To produce a suitable preparation of active compound, 1 part by weight of active compound is mixed with the stated amounts of solvent and emulsifier, and the concentrate is diluted with emulsifier-containing water to the desired concentration.
# Cotton leaves (Gossypium hirsutum) heavily infested by the cotton aphid (Aphis gossypii) are treated by being dipped into the preparation of active compound of the desired concentration.
# After the desired period of time, the kill in % is determined 100% means that all aphids have been killed; 0% means that none of the aphids have been killed. The determined kill rates are entered into Colby's formula (see page 71).
# [3] = tested on: Myzus persicae; assay: Myzus persicae test (cabbage leaves, dip); settings: cabbage leaves dipped; for Kill rate in % after 1 d, found: 4 ppm
# From the text: as §1, §2, §3, §4
# Cabbage leaves (Brassica oleracea) which are heavily infested by the green peach aphid (Myzus persicae) are treated by being dipped into the preparation of active compound of the desired concentration.
# After the desired period of time, the kill in % is determined. 100% means that all aphids have been killed; 0% means that none of the aphids have been killed. The determined kill rates are entered into Colby's formula (see page 71).
compound,measurement,setting,value
CCOC(=O)OC1=C(c2cc(C)ccc2C)C(=O)N[C@]12CC[C@@H](OC)CC2 [spirotetramat],"Kill rate in % after 7 d, found",[1]; 0.8 ppm,25%
same,"Kill rate in % after 6 d, found",[2]; 4 ppm,15%
same,"Kill rate in % after 6 d, found",[3]; 0.8 ppm,10%
Cc1nn(C)c(/C(OC(=O)C(C)(C)C)=C(\C#N)c2ccc(C(C)(C)C)cc2)c1C [cyenopyrafen],"Kill rate in % after 1 d, found",[3],0%
CNC(=O)c1cc(C#N)cc(C)c1NC(=O)c1cc(Br)nn1-c1ncccc1Cl [compound (5)],"Kill rate in % after 7 d, found",[1]; 0.16 ppm,0%
same,"Kill rate in % after 6 d, found",[2]; 0.8 ppm,45%
same,"Kill rate in % after 6 d, found",[3]; 0.16 ppm,5%
same,"Kill rate in % after 1 d, found",[3],10%
COCCOC(=O)C(C#N)(C(=O)c1ccccc1C(F)(F)F)c1ccc(C(C)(C)C)cc1 (stereo not drawn) [cyflumetofen],"Kill rate in % after 6 d, found",[2]; 0.16 ppm,0%
